Laboratory results published in patent publication US12385009B2, “Methods and compositions for generating oligodendrocyte progenitor cells” (Trailhead Biosystems Inc., priority 2021, dated 2025).
“Also recorded” adds a separate entry of the source.

Legend:
[1] = test system: human pluripotent stem cells; test: HD-DoE #1: 8-factor experiment, gene expression after 3-day treatment with effectors; type: cell-based; conditions: 8-factor model
Text: (§1) This example utilizes a method of High-Dimensional Design of Experiments (HD-DoE), as previously described in Bukys et al. (2020) Iscience 23:101346. The method employs computerized design geometries to simultaneously test multiple process inputs and offers mathematical modeling of a deep effector/response space. The method allows for finding combinatorial signaling inputs that control a complex process, such as during cell differentiation. It allows testing of multiple plausible critical process parameters, as such parameters impact output responses, such as gene expression. Because gene expression provides hallmark features of the phenotype of, for example, a human cell, the method can be applied to identify, and understand, which signaling pathways control cell fate. In the current example, the HD-DOE method was applied with the intent to find conditions for induction of oligodendrocyte progenitor-expressed genes, directly from the pluripotent stem cell state.
(§2) Specifically, to develop a novel method to generate oligodendrocytes, the impact of agonists and antagonists of multiple signaling pathways (herein called effectors) were tested on expression of two sets of 53 pre-selected genes after a 3-day treatment. These effectors are small molecules that are commonly used during stepwise differentiation of stem cells to specific fates. Choice of the effectors were based on current literature on neural induction in anterior ectoderm and differentiation of stem cells to oligodendrocytes.
To test the effectors, experiments with at least 8 factors were designed that can assess the response of cells to 48 or more different combinations of effectors in a range of concentrations. To analyze the models, we focused on expression of genes expressed during early development of anterior neuroectoderm and oligodendrocytes including NKX2-2, OLIG2, OLIG1, and PDGFRA. The impact of each effector on gene expression level is defined by a parameter called factor contribution that is calculated for each effector during the modeling.
This model tested 8 factors: PD0325901, MK2206, TTNPB, SC79, MHY1485, ZM336372, AGN193109 and AZD3147.

[2] = test system: human pluripotent stem cells; test: HD-DoE #2: 13-factor experiment, differentiation toward anterior neuroectoderm (OTX2, FEZF2 expression); type: cell-based; conditions: for effect on expression of FEZF2 (dynamic profiling analysis) / impact on expression level of OTX2 (dynamic profiling analysis): 13-factor model; for contribution to expression of OTX2 (in words): 13-factor model of high expression of OTX2
Text: as §1, §2
To further enhance the conditions for oligodendrocyte differentiation from pluripotency, we performed an additional HD-DoE experiment. We obtained additional gene regulatory models that were used for preparation of a differentiation protocol. The basis of this was a 13-factor HD-DoE experiment with focus on initiation of differentiation of cells toward anterior neuroectoderm. In this model, we focused on expression of FEZF2 and OTX2.

Compound | effect on expression of targeted oligodendrocyte genes (NKX2-2, OLIG2) [1] | contribution to expression of OTX2 (in words) [2] | further results
CCOC(=O)C1=C(N)Oc2ccc(Cl)cc2C1C(C#N)C(=O)OCC (centres unmarked) [SC79] | significant positive effect |  | 
c1ccc2c(Oc3nc(Nc4ccc(N5CCOCC5)cc4)c4ncn(C5CCCCC5)c4n3)cccc2c1 [Purmorphamine] |  |  | effect on expression of FEZF2 (dynamic profiling analysis) [2]: significant positive effects; impact on expression level of OTX2 (dynamic profiling analysis) [2]: no negative impact
O=[N+]([O-])c1ccc(Nc2nc(N3CCOCC3)nc(N3CCOCC3)n2)cc1 [MHY1485] | significant positive effect |  | 
O=C(NOC[C@H](O)CO)c1ccc(F)c(F)c1Nc1ccc(I)cc1F [PD0325901] | negatively impacting; also recorded: negative effect | positive contribution | 
c1ccc2c(-c3cnn4cc(-c5ccc(N6CCNCC6)cc5)cnc34)ccnc2c1 [LDN193189] |  | positive contribution | 
NC1(c2ccc(-c3nc4ccn5c(=O)[nH]nc5c4cc3-c3ccccc3)cc2)CCC1 [MK2206] | negative effect |  | 
Cc1c[nH]c(-c2cnc(NCCNc3ccc(C#N)cn3)nc2-c2ccc(Cl)cc2Cl)n1 [CHIR99021] |  | positive contribution | 
Cc1ccc(NC(=O)c2cccc(N(C)C)c2)cc1NC(=O)c1ccc(O)cc1 [ZM336372] | negatively impacting |  | 
COc1ccc2c(c1)c(C1=C(c3c[nH]c4ccccc34)C(=O)NC1=O)cn2CCCN(C)C [Go6983] |  | positive contribution | 
Oc1nc(-c2ccc(C(F)(F)F)cc2)nc2c1CSCC2 [XAV939] |  |  | effect on expression of FEZF2 (dynamic profiling analysis) [2]: significant positive effects; impact on expression level of OTX2 (dynamic profiling analysis) [2]: no negative impact
C/C(=C\c1ccc(C(=O)O)cc1)c1ccc2c(c1)C(C)(C)CCC2(C)C [TTNPB] | significant positive effect |  | 
